The values that follow come from article PMC7689250, “Synthetic Peptide Libraries Designed From a Minimal Alpha-Helical Domain of AS-48-Bacteriocin Homologs Exhibit Potent Antibacterial Activity” (Frontiers in Microbiology, 2020).

In one data set the test system is E. coli strain BL21. Put plainly: Propidium iodide uptake by FACS. Format: cell-based, Escherichia coli. The settings on record: 2, 4, 8, 16 or 32 μM peptide in saline, 1 h, ambient temperature, 1 × 10^4 events. How it is done:
For determination of bacterial cell death via membrane disruption, bacterial cells were subjected to propidium iodide (PI) uptake and quantified using fluorescence-activated cell sorting (FACS). E. coli strain BL21 were first diluted to a OD 600 of 1.0. Cells were washed three times in 0.85% NaCl (saline) solution and resuspended in either 1.5 mL of either saline, 70% isopropyl alcohol, or peptide diluted to either 2, 4, 8, 16 or 32 μM in saline for 1 h at ambient temperature. Following incubation, cells were pelleted and resuspended in 1 mL of saline with 1.5 μL/mL propidium iodide and incubated in the dark for 15 min. The samples were washed again with saline three times and run through a Beckman Coulter FC500 flow cytometer. The FL3 detector, using the propidium iodine PE-Alexa Fluor 610 emission filter, was used to sort the cells. 1 × 10^4 events were collected for each sample run.

The test system of the next data set is E. coli (BL21). Format: cell-based, Escherichia coli. The gist of the method:
(§1)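 MIC in Mueller-Hinton broth with 1 × 10^6 CFU/mL bacteria, overnight cultures grown first in LB (E. coli, P. aeruginosa, S. aureus) or Todd-Hewitt (S. pyogenes); growth read as OD 600. Library members screened at half the parent peptide MIC; MBC as lowest concentration giving no colonies after plating MIC wells, 37°C overnight.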

The test system of the next data set is S. aureus (USA300). Type of data set: cell-based, Staphylococcus aureus. The settings on record: for MBC: USA300; for MIC: USA300, 16 h. The gist of the method:
as §1

For a further data set, the system named is S. pyogenes (M1). Type of data set: cell-based, Streptococcus pyogenes. The note with it: for MBC: M1. The method, boiled down:
as §1

The next data set relates to sheep erythrocytes. Type of data set: cell-based. The settings on record: red cells of sheep, 1 h. The method, boiled down:
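Washed defibrinated sheep blood, diluted 1:25 in PBS, incubated 1 h at 37 °C with peptide at the MIC-assay concentrations (sample:blood 1:10). Haemoglobin release read as supernatant absorbance at 450 nm; percent haemolysis normalised to PBS and 10% Triton controls.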

For data set [1], the system named is GFP-expressing E. coli strain BL21. Description: Live imaging of GFP leakage. Type of data set: cell-based, Escherichia coli. The note with it: 16 μM peptide, 8 h, 37°C, images every 10 min. The method, then: To observe bacterial cell death in the presence of peptide in real time, fluorescence microscopy was employed using GFP-expressing E. coli strain BL21. MIC assays were conducted against BL21-GFP to determine the peptide concentration used for microscopy experiments. The peptide was suspended in PBS and added to diluted bacterial cells. GFP-expressing E. coli in the presence of peptide were imaged on the Eclipse Ti-E inverted microscope (Nikon) using GFP and DIC channels for 8 h at 37°C, with images taken every 10 min ([Fields et al., 2020]). Syn-xiamencin-2, a peptide with no detectable antimicrobial activity below 128 μM was also evaluated as a negative peptide candidate control.

A further data set relates to P. aeruginosa (PAO1). Format: cell-based, Pseudomonas aeruginosa. The settings on record: for MBC: PAO1; for MIC: PAO1, 16 h. The gist of the method: as §1
For data set [2], the system named is human keratinocyte cell line (HaCaT). Description: HaCaT cytotoxicity, ethidium homodimer assay. Type of data set: cell-based. The settings on record: 16 h, 37°C, DMEM + 10% FBS, normalised to saponin, triplicate. How it is done:
To assess cytotoxicity of optimized peptides in mammalian cells, an immortalized human keratinocyte cell line (HaCaT) was used. Cells were grown to 80% confluency in 24-well culture dishes and washed with PBS (Thermo Fisher). […] After incubation, the cells were washed with sterile PBS, followed by a covered incubation with 4 μM ethidium homodimer (Molecular Probes) for 30 min at room temperature. Fluorescence was measured using the Synergy H1 Microplate Reader set to 528 nm excitation, 617 nm emission, and a cutoff value of 590 nm. Saponin (0.1% wt/vol, Sigma) was added to each well followed by a covered incubation for 20 min at room temperature, followed by another measurement on the Synergy H1 Microplate Reader using the same settings to normalize readings to the number of cells per well and determine the percent cytotoxicity.

The mark [3] stands for this setting: E. coli BL21, running text b43, unit printed nm.

Where two headings read alike, the source gives them in different places. Residues, ends and D or L forms follow the SMILES beside them.

With `CC(C)O` [Isopropyl alcohol, isopropyl alcohol, reference compound], the PI positive cells result in the data set with E. coli strain BL21 is recorded as “large peak within the PI florescence range”.
Broadly, the MBC is the smallest concentration meeting the test's criterion for killing. Usually MIC stands for the lowest concentration found to suppress growth. Consider `CC[C@H](C)[C@H](NC(=O)[C@H](CCCCN)NC(=O)[C@H](CCCCN)NC(=O)[C@H](CCCCN)NC(=O)[C@H](CC(C)C)NC(=O)[C@H](CCCNC(=N)N)NC(=O)[C@H](CCC(N)=O)NC(=O)[C@H](Cc1ccccc1)NC(=O)[C@@H](NC(=O)[C@@H](NC(=O)[C@H](CCC(=O)O)NC(=O)[C@H](CCCCN)NC(=O)CNC(=O)[C@H](C)N)[C@@H](C)O)[C@@H](C)CC)C(=O)N[C@@H](CCC(N)=O)C(=O)N[C@@H](CCC(=O)O)C(=O)N[C@@H](CCCCN)C(=O)N[C@@H](Cc1c[nH]c2ccccc12)C(=O)N[C@@H](CCCCN)C(=O)N[C@@H](CCCNC(=N)N)C(=O)N[C@@H](C)C(=O)N[C@H](C(=O)N[C@H](C(=O)N[C@@H](C)C(=O)N[C@@H](Cc1c[nH]c2ccccc12)C(=O)O)[C@@H](C)CC)[C@@H](C)O` [Syn-larvacin-43] (H-AGKETIFQRLKKKIQEKWKRATIAW-OH; N-terminus and C-terminus assumed), for which the MBC with E. coli (BL21) (BL21) was 1 µM; in the data set on S. aureus (USA300), 4 µM; in the data set on S. pyogenes (M1), 4 µM; with P. aeruginosa (PAO1), 16 µM. The minimal inhibitory concentration (MIC) was found to be 1 µM in the data set with E. coli (BL21) (BL21, 16 h); 4 µM with S. aureus (USA300); 4 µM with S. pyogenes (M1) (M1, 16 h); 16 µM in the data set on P. aeruginosa (PAO1). For the same compound, the PI positive cells result in the data set on E. coli strain BL21 was “higher cell counts of PI-stained cells in a dose-dependent manner”. Besides, in the data set with sheep erythrocytes, the “Percent Hemolysis” value was 19.9%. The “GFP leakage / change in fluorescence” value in data set [1] is “significant decrease in fluorescence”.
On to `CC[C@H](C)[C@H](NC(=O)[C@H](Cc1c[nH]c2ccccc12)NC(=O)[C@H](C)NC(=O)[C@H](CCCNC(=N)N)NC(=O)[C@H](CCCCN)NC(=O)CNC(=O)[C@H](CCCCN)NC(=O)[C@H](CCC(=O)O)NC(=O)[C@H](CCC(N)=O)NC(=O)[C@@H](NC(=O)[C@H](CCCCN)NC(=O)[C@H](CCCCN)NC(=O)[C@H](CCCCN)NC(=O)[C@H](CC(C)C)NC(=O)[C@H](CCCNC(=N)N)NC(=O)[C@H](CCC(N)=O)NC(=O)[C@H](Cc1ccccc1)NC(=O)[C@@H](NC(=O)[C@@H](NC(=O)[C@H](CCC(=O)O)NC(=O)[C@H](CCCCN)NC(=O)CNC(=O)[C@H](C)N)[C@@H](C)O)[C@@H](C)CC)[C@@H](C)CC)C(=O)N[C@@H](C)C(=O)N[C@@H](Cc1c[nH]c2ccccc12)C(=O)O` [Syn-larvacin-27] (H-AGKETIFQRLKKKIQEKGKRAWIAW-OH; N-terminus and C-terminus assumed), for which the MIC in the data set with E. coli (BL21) (BL21) is 0.0156 µM; with E. coli (BL21) (BL21, 16 h), under 0.0156 µM; in the data set on E. coli (BL21) (setting [3]), “below 15.6 nM”; in the data set on S. aureus (USA300) it was 8 µM; with S. pyogenes (M1) (S. pyogenes M1), 0.125 µM; with S. pyogenes (M1) (S. pyogenes M1, running text b43, unit printed nm) it was 0.125 µM. Moreover, in the data set on P. aeruginosa (PAO1), the minimal inhibitory concentration (MIC) amounted to 32 µM. Also, the MBC entry in the data set on E. coli (BL21) (setting [3]) is “below 15.6 nM”; in the data set with S. aureus (USA300), 8 µM; with S. pyogenes (M1), 0.5 µM; in the data set with P. aeruginosa (PAO1), 64 µM. Further, in the data set with E. coli strain BL21, the PI positive cells entry is on record as “higher cell counts of PI-stained cells in a dose-dependent manner”. Further, the “GFP leakage / change in fluorescence” value in data set [1] is “significant decrease in fluorescence”.
Consider `CC[C@H](C)[C@H](NC(=O)[C@H](CCCNC(=N)N)NC(=O)CNC(=O)[C@@H](NC(=O)[C@H](CCCCN)NC(=O)[C@H](CCCNC(=N)N)NC(=O)[C@@H](NC(=O)[C@H](Cc1ccc(O)cc1)NC(=O)[C@H](CCCNC(=N)N)NC(=O)[C@H](CCCNC(=N)N)NC(=O)[C@H](CC(C)C)NC(=O)[C@H](CCC(=O)O)NC(=O)[C@H](CCCCN)NC(=O)[C@H](C)NC(=O)[C@@H](NC(=O)[C@H](CCCNC(=N)N)NC(=O)[C@H](CC(N)=O)NC(=O)[C@@H](NC(=O)CNC(=O)[C@H](C)N)[C@@H](C)O)[C@@H](C)CC)[C@@H](C)CC)C(C)C)C(=O)N[C@@H](C)C(=O)N[C@@H](CCCNC(=N)N)C(=O)N[C@@H](CCCCN)C(=O)N[C@@H](Cc1c[nH]c2ccccc12)C(=O)N[C@@H](Cc1c[nH]c2ccccc12)C(=O)O` [Syn-sordellicin-64] (H-AGTNRIAKELRRYIRKVGRIARKWW-OH; N-terminus and C-terminus assumed), for which the “concentration at which peptide is cytotoxic” value in data set [2] is at least 32 µM. For the same compound, the MBC in the data set with E. coli (BL21) (BL21) is 0.5 µM; in the data set with S. aureus (USA300), 8 µM; in the data set on S. pyogenes (M1), 1 µM; in the data set with P. aeruginosa (PAO1), 8 µM. Also, the MIC came out at 0.25 µM in the data set on E. coli (BL21) (E. coli BL21); 8 µM in the data set with S. aureus (USA300); 1 µM with S. pyogenes (M1) (M1, 16 h); 8 µM in the data set on P. aeruginosa (PAO1). The “Percent Hemolysis” value in the data set on sheep erythrocytes is 18.8%.
